One assay is filed under the species Homo sapiens. Put plainly: The compound was tested for antiviral activity against HIV-1/Ba-L-infected monocyte-derived macrophages in human at a concentration of 0.5 mM. It is filed as functional. Conditions: at 0.5 mM.
For `O=C1N[C@H](C(=O)OCC(=O)c2ccccc2)CS1`, the Untreated control is 69%.

With `O=C1N[C@H](C(=O)O)CS1` [PROCYSTEINE], the Untreated control worked out at 81%.

The next assay is filed under the species Homo sapiens. Put plainly: The compound was tested for antiviral activity against HIV-1/Ba-L-infected monocyte-derived macrophages in human at a concentration of 2 mM. It is filed as functional.
Settings: not given
Consider `CC(=O)N1C(=O)SC[C@H]1C(=O)O`, for which the “Percent of untreated control” value is given as 34%. Same read-out and setting: the value for `CCOC(=O)[C@@H]1CSC(=O)N1C(=O)CC[C@H](N)C(=O)O.Cl` was 37%; that for `Cl.N[C@@H](CCC(=O)N1C(=O)SC[C@H]1C(=O)NCC(=O)O)C(=O)O` was 159%; that for `Cl.N[C@@H](CCC(=O)N1C(=O)SC[C@H]1C(=O)O)C(=O)O` was 83%.

As for `CC(C)(C)OC(=O)CNC(=O)[C@@H]1CSC(=O)N1`, the “Percent of untreated control” value came to 104%.

For the compound `O=C(O)CNC(=O)[C@@H]1CSC(=O)N1`, the “Percent of untreated control” value is given as 45%. Same read-out and setting: the value for `CCOC(=O)[C@@H]1CSC(=O)N1` was 86%. On the same count and under the same terms, the same measure for `CC(C)(C)OC(=O)N[C@@H](CCC(=O)N1C(=O)SC[C@H]1C(=O)O)C(=O)OC(C)(C)C`: 102%; for `CC(=O)N[C@@H](CS)C(=O)O` [ACETYLCYSTEINE]: 88%; for `O=C1N[C@H](C(=O)O)CS1` [PROCYSTEINE]: 37.
